Laboratory results taken from patent US6887896B1, “7-[(7-Alkoxy)-chrom-3-en-6-yl]-heptatrienoic acid and 7-[(3-alkoxy)-5,6-dihydronaphthalen-2-yl]-heptatrienoic acid derivatives having serum glucose reducing activity” (Allergan, Inc., priority 2003, dated 2005).

Legend:
[1] = target: T1, RXRα (Homo sapiens, UniProt P19793); experiment: holoreceptor transactivation assay, RXRα; format: cell-based; conditions: for EC50: holoreceptor transactivation, read-out: RXR Trans. EC50 α; for Emax: percentage compared to the standard compound, read-out: RXR Trans. efficacy (number in parentheses) α
T1 construct: expressed in transfected cells
T1 sequence (P19793 1-462): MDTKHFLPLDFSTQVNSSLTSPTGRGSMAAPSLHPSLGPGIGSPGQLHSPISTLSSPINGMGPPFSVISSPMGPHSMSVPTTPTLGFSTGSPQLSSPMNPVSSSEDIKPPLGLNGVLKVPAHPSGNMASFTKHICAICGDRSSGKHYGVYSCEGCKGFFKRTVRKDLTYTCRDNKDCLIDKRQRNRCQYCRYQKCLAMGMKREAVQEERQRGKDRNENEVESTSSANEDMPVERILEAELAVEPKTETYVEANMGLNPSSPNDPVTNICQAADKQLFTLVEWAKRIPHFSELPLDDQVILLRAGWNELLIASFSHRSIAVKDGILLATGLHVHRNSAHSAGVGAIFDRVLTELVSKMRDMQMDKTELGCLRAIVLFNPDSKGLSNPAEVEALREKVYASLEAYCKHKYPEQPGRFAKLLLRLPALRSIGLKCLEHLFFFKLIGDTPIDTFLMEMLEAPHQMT
Excerpt: (§1) Specifically, one such assay is a chimeric receptor transactivation assay which tests for agonist-like activity in the R RAPE and RAR7 receptor subtypes, and which is based on work published by Feigner, P. L. and Holm, M (1989) Focus, 112 is described in detail in U.S. Pat. No. 5,455,265. The specification of U.S. Pat. No. 5,455,265 is hereby expressly incorporated by reference. A holoreceptor transactivation assay and a ligand binding assay which measure the antagonist/agonist like activity of the compounds of the invention, or their ability to bind to the several retinoid receptor subtypes, respectively, are described in published PCT Application No. WO WO93/11755 (particularly on pages 30-33 and 37-41) published on Jun. 24, 1993, the specification of which is also incorporated herein by reference. A detailed experimental procedure for holoreceptor transactivations has been described by Heyman et al. Cell 68, 397-406, (1992); Allegretto et al. J. Biol. Chem. 268, 26625-26633, and Mangelsdorf et al. The Retinoids: Biology, Chemistry and Medicine, pp 319-349, Raven Press Ltd., New York, which are expressly incorporated herein by reference. The results obtained in this assay are expressed in EC50 numbers, as they are also in the chimeric receptor transactivation assay. The results of the ligand binding assay are expressed in Ki numbers. (See Cheng et al. Biochemical Pharmacology Vol. 22 pp 3099-3108, expressly incorporated herein by reference.)
(§2) Efficacy in a transactivation assay is expressed as a percentage of the maximum potency attained by the compound compared to a standard which, in this case, is the compound named (2E,4E,1′S,2′S)-3-methyl-5-[2′-methyl-2′-(5,5,8,8-tetramethyl-5,6,7,8-tetrahydro-naphthalen-2-yl)-cyclopropyl]-penta-2,4-dienoic acid. This standard compound is described in U.S. Pat. No. 6,114,533.
(§3) The specification of this application for patent is organized in several sections in accordance with structural Formulas A through F each of which discloses a group of preferred compounds within the scope of the invention. Tables that disclose the activity of certain exemplary compounds of the invention in the above-described RXR receptor transactivation and binding assays are found in the corresponding sections. […] The transactivation data pertaining to the activation of RXR receptors were obtained in the holoreceptor assay.
(§4) Generally speaking, in the tables disclosing the results of transactivation and binding assays the numbers in parentheses indicate efficacy as a percentage compared to the standard compound, (2E,4E,1′S,2′S)-3-methyl-5-[2′-methyl-2′-(5,5,8,8-tetramethyl-5,6,7,8-tetrahydro-naphthalen-2-yl)cyclopropyl]-penta-2,4-dienoic acid and the other numbers indicate the measured EC50 and K; in nanomolar concentration.

[2] = target: T2, RXRγ (UniProt P28705); experiment: holoreceptor transactivation assay, RXRγ; format: cell-based; conditions: for EC50: holoreceptor transactivation, read-out: RXR Trans. EC50 γ; for RXR Trans. efficacy (number in parentheses) γ: percentage compared to the standard compound
T2 sequence (P28705 1-463): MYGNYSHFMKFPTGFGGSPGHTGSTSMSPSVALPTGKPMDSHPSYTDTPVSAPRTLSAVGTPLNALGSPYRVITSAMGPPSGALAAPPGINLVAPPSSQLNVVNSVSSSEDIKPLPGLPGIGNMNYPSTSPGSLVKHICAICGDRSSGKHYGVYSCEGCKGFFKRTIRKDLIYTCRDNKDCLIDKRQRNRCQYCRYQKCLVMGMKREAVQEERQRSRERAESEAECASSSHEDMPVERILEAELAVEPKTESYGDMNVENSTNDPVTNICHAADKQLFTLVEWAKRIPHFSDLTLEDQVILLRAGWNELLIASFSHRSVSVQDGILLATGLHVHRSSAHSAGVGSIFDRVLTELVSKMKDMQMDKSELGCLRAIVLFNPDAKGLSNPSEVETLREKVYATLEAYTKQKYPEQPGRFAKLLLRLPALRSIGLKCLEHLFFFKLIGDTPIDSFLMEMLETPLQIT
Excerpt: as §1, §2, §3, §4

[3] = target: T1, RXRα; experiment: ligand binding assay, RXRα; conditions: read-out: RXR Bind Ki α
Excerpt: as §1, §4

[4] = target: T3, RXRβ (UniProt P28704); experiment: ligand binding assay, RXRβ; conditions: for Ki: read-out: RXR Bind Ki β
T3 sequence (P28704 1-520): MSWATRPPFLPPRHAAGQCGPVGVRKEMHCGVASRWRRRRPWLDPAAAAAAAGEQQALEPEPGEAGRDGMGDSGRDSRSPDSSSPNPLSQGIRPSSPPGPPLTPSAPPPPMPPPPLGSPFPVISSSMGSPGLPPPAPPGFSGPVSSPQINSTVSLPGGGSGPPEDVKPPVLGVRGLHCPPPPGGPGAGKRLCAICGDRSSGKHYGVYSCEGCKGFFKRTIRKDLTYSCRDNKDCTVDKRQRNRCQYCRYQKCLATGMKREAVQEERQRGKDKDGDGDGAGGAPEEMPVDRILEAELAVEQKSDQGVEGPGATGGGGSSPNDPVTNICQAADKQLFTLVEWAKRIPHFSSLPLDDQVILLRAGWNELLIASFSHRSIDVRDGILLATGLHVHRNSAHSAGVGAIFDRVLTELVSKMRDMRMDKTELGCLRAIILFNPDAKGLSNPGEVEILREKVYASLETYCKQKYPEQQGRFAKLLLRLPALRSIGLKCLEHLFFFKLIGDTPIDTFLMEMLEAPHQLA
Excerpt: as §1, §4

## CCOc1cc2c(cc1\C(C)=C(F)/C=C/C(C)=C/C(=O)O)C(C)=CCC2(C)C
[1]
  EC50: 3 nM
  Emax: 62%
[2]
  EC50: 3 nM
  RXR Trans. efficacy (number in parentheses) γ: 70%
[3]
  Ki: 2 nM
[4]
  Ki: 15 nM

## CCC1=CC(C)(C)Oc2cc(OC)c(\C(C)=C/C=C/C(C)=C/C(=O)O)cc21 [Compound 42, 7-(4-Ethyl-7-methoxy-2,2-dimethyl-2H-chromen-6-yl)-3-methyl-octa-2E,4E,6Z-trienoic acid]
[1]
  EC50: 6 nM
  Emax: 99%
[2]
  EC50: 13 nM
  RXR Trans. efficacy (number in parentheses) γ: 125%
[3]
  Ki: 49 nM
[4]
  Ki: 228 nM

## COc1cc2c(cc1\C(C)=C/C=C/C(C)=C/C(=O)O)C(C(C)C)=CC(C)(C)O2 [Compound 43, 7-(4-Isopropyl-7-methoxy-2,2-dimethyl-2H-chromen-6-yl)-3-methyl-octa-2E,4E,6Z-trienoic acid]
[1]
  EC50: 2 nM
  Emax: 89%
[2]
  EC50: 3 nM
  RXR Trans. efficacy (number in parentheses) γ: 95%
[3]
  Ki: 6 nM
[4]
  Ki: 78 nM

## CC/C(=C/C=C/C(C)=C/C(=O)O)c1cc2c(cc1OC)OC(C)(C)C=C2C(C)C [Compound 44, 7-(4-Isopropyl-7-methoxy-22-dimethyl-2H-chromen-6-yl)-3-methyl-nona-2E,4E,6Z-trienoic acid]
[1]
  EC50: 0.3 nM
  Emax: 89%
[2]
  EC50: 0.4 nM
  RXR Trans. efficacy (number in parentheses) γ: 97%
[3]
  Ki: 4 nM
[4]
  Ki: 38 nM

## CCOc1cc2c(cc1\C(C)=C/C=C/C(C)=C/C(=O)O)C(CC)=CC(C)(C)O2 [Compound 45, 7-(7-Ethoxy-4-ethyl-2,2-dimethyl-2H-chromen-6-yl)-3-methyl-octa-2E,4E,6Z-trienoic acid]
[1]
  EC50: 78 nM
  Emax: 5%
[3]
  Ki: 52 nM
[4]
  Ki: 343 nM

## CCOc1cc2c(cc1\C(=C/C=C/C(C)=C/C(=O)O)CC)C(C)=CC(C)(C)O2 [Compound 46, 7-(7-Ethoxy-2,2,4-trimethyl-2H-chromen-6-yl)-3-methyl-nona-2E,4E,6Z-trienoic acid]
[1]
  EC50: > 1000 nM
[2]
  EC50: > 1000 nM
[3]
  Ki: 199 nM
[4]
  Ki: 1700 nM

## COc1c(\C(C)=C/C=C/C(C)=C/C(=O)O)cc2c(c1Cl)OC(C)(C)C=C2C(C)C [Compound 49, 7-(8-Chloro-4-isopropyl-7-methoxy-2,2-dimethyl-2H-chromen-6-y)-3-methyl-octa-2E,4E,6Z-trienoic acid]
[1]
  EC50: 0.1 nM
  Emax: 93%
[2]
  EC50: 0.3 nM
  RXR Trans. efficacy (number in parentheses) γ: 97%
[3]
  Ki: 2 nM
[4]
  Ki: 20 nM

## CCOc1c(\C(C)=C/C=C/C(C)=C/C(=O)O)cc2c(c1Cl)OC(C)(C)C=C2C(C)C [Compound 50, 7-(8-Chloro-4-isopropyl-7-ethoxy-2,2-dimethyl-2H-chromen-6-yl)-3-methyl-octa-2E,4E,6Z-trienoic acid]
[1]
  EC50: 2 nM
  Emax: 56%
[2]
  EC50: 5 nM
  RXR Trans. efficacy (number in parentheses) γ: 47%
[3]
  Ki: 4 nM
[4]
  Ki: 76 nM

## CCOc1c(\C(=C/C=C/C(C)=C/C(=O)O)CC)cc2c(c1Cl)OC(C)(C)C=C2C(C)C [Compound 51]
[1]
  EC50: 9 nM
  Emax: 25%
[2]
  EC50: 22 nM
  RXR Trans. efficacy (number in parentheses) γ: 13%
[3]
  Ki: 13 nM
[4]
  Ki: 112 nM

## CCC1=CC(C)(C)Oc2cc(OC)c(\C(C)=C(F)/C=C/C(C)=C/C(=O)O)cc21 [Compound 120, 7-(4Ethyl-7-methoxy-2,2-dimethyl-2H-chromen-6-yl)-6-fluoro-3-methyl-octa-2E,4E,6E-trienoic acid]
[1]
  EC50: > 10000 nM
[2]
  EC50: > 10000 nM
[3]
  Ki: 277 nM
[4]
  Ki: 2600 nM

## CCOc1cc2c(cc1\C(C)=C(F)/C=C/C(C)=C/C(=O)O)C(c1ccccc1)=CC(C)(C)O2 [Compound 127, (2E,4E,6E)-7-(7-Ethoxy-2,2-dimethyl-4-phenyl-2H-chromen-6-yl)-6-fluoro-3-methyl-octa-2,4,6-trienoic acid]
[3]
  Ki: 97 nM
[4]
  Ki: 554 nM

## CCCOc1cc2c(cc1\C(C)=C(F)/C=C/C(C)=C/C(=O)O)C(c1ccccc1)=CC(C)(C)O2 [Compound 128, (2E,4E,6E)-7-(2,2-Dimethyl-4-phenyl-7-propoxy-2H-chromen-6-yl)-6-fluoro-3-methyl-octa-2,4,6-trienoic acid]
[3]
  Ki: 53 nM
[4]
  Ki: 289 nM

## CCCOc1cc2c(cc1\C(C)=C(F)/C=C/C(C)=C/C(=O)O)C(C(C)C)=CCC2(C)C [Compound A-80]
[3]
  Ki: 10 nM
[4]
  Ki: 56 nM

## CC(/C=C/C(F)=C(/C)c1cc2c(cc1OCC1CC1)C(C)(C)CC=C2C(C)C)=C\C(=O)O [Compound A-81, (2E,4E,6E)-6-Fluoro-3-(4-dimethyl-6-(cyclopropyl)methoxy-1-isopropyl-3,4-dihydronaphthalen-7-yl)-3-methyl-2,4.6-octa-trienoic acid]
[3]
  Ki: 12 nM
[4]
  Ki: 33 nM

## CCCOc1cc2c(cc1\C(C)=C(F)/C=C/C(C)=C/C(=O)O)C(C(C)(C)C)=CCC2(C)C [Compound A-84, (2E,4E,6E)-6-Fluoro-3-(4,$dimethyl-6-n-propoxy-1-tert-butyl-3,4-dihydronaphthalen-7-yl)-3-methyl-2,4,6-octatrienoic acid]
[3]
  Ki: 13 nM
[4]
  Ki: 101 nM

## CCOc1c(\C(CC)=C(F)/C=C/C(C)=C/C(=O)O)cc2c(c1Br)C(C)(C)CC=C2C(C)CC (stereo not drawn) [Compound A-176, (2E,4E,6E)-7-(4-Bromo-8-sec-butyl-3-ethoxy-5,5-methyl-5,6-dihydro-naphthalen-2-yl)-6-fluoro-3-methyl-nona-2,4,6-trienoic acid]
[1]
  EC50: 0.9 nM
  Emax: 58%
[2]
  EC50: 3 nM
  RXR Trans. efficacy (number in parentheses) γ: 53%
[4]; Table 9 (Formula F), read-out: RXR β Kd
  Kd: 23 nM
